Three compounds from ChEMBL document CHEMBL1152560, “Substituted 2-arylbenzothiazoles as kinase inhibitors: hit-to-lead optimization” (Bioorg Med Chem, 2009) can be followed below.

The target in assay [1] is T1, NUAK family SNF1-like kinase 2 (Homo sapiens) (UniProt Q9H093).
T1 sequence (whole entry): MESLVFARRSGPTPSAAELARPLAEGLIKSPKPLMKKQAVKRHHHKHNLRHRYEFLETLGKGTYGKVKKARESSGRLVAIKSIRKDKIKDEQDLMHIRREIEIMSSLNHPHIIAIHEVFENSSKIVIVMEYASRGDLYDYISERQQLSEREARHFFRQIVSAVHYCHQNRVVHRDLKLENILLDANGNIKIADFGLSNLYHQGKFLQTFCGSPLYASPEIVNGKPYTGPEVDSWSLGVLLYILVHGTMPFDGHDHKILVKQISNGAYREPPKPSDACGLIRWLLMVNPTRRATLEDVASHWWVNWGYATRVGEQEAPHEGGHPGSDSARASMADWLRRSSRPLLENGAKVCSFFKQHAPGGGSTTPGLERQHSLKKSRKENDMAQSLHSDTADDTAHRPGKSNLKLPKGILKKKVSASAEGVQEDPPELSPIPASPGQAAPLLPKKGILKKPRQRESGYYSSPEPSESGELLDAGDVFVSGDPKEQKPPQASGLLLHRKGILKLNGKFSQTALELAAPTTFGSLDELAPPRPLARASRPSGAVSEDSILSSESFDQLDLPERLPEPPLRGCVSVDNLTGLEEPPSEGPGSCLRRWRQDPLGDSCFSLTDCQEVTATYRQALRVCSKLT
Nature of the assay: Residual activity of SNARK at 1 uM by microplate scintillation counting.

The test system of assay [2] is Tyrosine-protein kinase ABL1 (Homo sapiens), P00519 [T315I]. Nature of the assay: Residual activity of ABL1 T315I mutant at 0.1 uM by microplate scintillation counting.
The target in assay [3] is T2, Myotonin-protein kinase (Homo sapiens) (UniProt Q09013).
T2 sequence (whole entry): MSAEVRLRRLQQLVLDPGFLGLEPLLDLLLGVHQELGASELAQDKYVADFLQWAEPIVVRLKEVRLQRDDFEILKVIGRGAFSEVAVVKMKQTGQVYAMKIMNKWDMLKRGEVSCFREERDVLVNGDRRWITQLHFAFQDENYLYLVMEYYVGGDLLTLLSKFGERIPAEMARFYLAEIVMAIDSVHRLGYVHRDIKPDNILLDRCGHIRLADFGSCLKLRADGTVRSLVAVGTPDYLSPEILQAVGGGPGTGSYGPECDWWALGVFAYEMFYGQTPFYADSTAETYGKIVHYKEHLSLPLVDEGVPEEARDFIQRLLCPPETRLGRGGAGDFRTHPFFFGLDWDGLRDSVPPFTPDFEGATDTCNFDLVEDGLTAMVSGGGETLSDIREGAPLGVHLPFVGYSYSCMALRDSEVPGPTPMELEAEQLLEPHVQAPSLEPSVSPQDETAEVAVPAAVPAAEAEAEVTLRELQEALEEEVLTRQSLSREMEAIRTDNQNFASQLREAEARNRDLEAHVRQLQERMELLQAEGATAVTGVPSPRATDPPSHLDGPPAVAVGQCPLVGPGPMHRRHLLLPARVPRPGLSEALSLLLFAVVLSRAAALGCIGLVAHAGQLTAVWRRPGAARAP
The assay is described as follows: Residual activity of DMPK at 1 uM by microplate scintillation counting.

The target of assay [4] is T3, Muscle, skeletal receptor tyrosine-protein kinase (Homo sapiens) (UniProt O15146).
T3 sequence (whole entry): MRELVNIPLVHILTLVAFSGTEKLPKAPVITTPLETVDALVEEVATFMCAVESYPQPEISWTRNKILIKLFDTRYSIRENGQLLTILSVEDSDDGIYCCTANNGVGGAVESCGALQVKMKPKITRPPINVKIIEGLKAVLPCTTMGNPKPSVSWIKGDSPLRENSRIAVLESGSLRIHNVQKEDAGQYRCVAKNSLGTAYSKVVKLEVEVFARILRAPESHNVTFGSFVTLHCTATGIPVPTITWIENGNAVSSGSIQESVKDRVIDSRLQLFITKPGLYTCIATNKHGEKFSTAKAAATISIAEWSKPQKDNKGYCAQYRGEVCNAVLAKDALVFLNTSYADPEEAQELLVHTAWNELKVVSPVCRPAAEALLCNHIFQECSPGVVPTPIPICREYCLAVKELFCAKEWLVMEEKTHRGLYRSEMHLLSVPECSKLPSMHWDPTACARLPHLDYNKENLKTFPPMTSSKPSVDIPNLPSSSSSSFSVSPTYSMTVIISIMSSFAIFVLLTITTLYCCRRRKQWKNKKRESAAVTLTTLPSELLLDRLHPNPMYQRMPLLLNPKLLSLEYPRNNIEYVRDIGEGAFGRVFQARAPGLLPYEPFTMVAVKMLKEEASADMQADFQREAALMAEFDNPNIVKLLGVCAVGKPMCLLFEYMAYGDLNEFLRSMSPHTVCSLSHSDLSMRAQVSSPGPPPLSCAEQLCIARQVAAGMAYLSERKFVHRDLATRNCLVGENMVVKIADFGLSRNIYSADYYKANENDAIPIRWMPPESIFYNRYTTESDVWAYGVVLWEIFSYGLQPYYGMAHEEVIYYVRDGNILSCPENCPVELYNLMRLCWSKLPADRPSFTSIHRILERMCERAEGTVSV
The assay is described as follows: Residual activity of MUSK at 10 uM by microplate scintillation counting.

Assay [5] addresses Macrophage colony-stimulating factor 1 receptor (Homo sapiens) (UniProt P07333). Nature of the assay: Residual activity of CSF1R at 10 uM by microplate scintillation counting.
Assay [6] deals with T4, Serine/threonine-protein kinase Sgk3 (Homo sapiens) (UniProt Q96BR1).
T4 sequence (whole entry): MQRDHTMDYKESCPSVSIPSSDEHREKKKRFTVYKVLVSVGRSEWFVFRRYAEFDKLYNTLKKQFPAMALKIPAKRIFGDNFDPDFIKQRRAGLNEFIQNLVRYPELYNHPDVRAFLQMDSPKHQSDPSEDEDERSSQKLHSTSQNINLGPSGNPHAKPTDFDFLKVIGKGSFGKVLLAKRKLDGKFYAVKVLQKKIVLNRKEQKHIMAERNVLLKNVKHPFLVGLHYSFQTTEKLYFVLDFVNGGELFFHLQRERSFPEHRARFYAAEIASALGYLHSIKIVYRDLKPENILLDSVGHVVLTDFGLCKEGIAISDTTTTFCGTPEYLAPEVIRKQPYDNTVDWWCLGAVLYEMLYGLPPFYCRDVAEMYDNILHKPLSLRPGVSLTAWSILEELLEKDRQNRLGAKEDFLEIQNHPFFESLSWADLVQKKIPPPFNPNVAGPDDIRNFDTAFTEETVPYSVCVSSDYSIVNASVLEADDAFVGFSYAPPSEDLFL
The assay is described as follows: Residual activity of SGK3 at 1 uM by microplate scintillation counting.

Assay [7] concerns the target High affinity nerve growth factor receptor (Homo sapiens) (UniProt P04629). Nature of the assay: Residual activity of TRK-A at 10 uM by microplate scintillation counting.
For assay [8], the target named is 5'-AMP-activated protein kinase catalytic subunit alpha-1 (Homo sapiens) (UniProt Q13131). Nature of the assay: Residual activity of AMPK-alpha1 fl at 1 uM by microplate scintillation counting.
Sequence of 5'-AMP-activated protein kinase catalytic subunit alpha-1 (Homo sapiens) (Q13131 whole entry, looked up): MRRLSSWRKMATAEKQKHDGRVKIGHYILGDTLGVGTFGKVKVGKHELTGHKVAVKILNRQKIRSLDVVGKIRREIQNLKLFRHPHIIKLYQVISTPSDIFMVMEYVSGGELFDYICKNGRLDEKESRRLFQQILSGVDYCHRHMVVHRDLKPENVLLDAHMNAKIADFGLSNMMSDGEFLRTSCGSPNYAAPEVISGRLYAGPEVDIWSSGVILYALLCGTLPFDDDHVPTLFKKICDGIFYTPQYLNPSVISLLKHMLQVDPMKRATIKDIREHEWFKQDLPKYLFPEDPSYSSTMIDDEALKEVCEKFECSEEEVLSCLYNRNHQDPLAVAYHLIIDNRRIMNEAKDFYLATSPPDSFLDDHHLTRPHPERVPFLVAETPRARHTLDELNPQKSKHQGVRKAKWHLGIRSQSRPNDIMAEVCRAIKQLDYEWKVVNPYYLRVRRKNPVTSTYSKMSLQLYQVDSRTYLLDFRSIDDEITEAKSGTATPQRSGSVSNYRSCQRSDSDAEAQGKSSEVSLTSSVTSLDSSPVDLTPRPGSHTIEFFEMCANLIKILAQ

Sequence of Macrophage colony-stimulating factor 1 receptor (Homo sapiens) (P07333 whole entry): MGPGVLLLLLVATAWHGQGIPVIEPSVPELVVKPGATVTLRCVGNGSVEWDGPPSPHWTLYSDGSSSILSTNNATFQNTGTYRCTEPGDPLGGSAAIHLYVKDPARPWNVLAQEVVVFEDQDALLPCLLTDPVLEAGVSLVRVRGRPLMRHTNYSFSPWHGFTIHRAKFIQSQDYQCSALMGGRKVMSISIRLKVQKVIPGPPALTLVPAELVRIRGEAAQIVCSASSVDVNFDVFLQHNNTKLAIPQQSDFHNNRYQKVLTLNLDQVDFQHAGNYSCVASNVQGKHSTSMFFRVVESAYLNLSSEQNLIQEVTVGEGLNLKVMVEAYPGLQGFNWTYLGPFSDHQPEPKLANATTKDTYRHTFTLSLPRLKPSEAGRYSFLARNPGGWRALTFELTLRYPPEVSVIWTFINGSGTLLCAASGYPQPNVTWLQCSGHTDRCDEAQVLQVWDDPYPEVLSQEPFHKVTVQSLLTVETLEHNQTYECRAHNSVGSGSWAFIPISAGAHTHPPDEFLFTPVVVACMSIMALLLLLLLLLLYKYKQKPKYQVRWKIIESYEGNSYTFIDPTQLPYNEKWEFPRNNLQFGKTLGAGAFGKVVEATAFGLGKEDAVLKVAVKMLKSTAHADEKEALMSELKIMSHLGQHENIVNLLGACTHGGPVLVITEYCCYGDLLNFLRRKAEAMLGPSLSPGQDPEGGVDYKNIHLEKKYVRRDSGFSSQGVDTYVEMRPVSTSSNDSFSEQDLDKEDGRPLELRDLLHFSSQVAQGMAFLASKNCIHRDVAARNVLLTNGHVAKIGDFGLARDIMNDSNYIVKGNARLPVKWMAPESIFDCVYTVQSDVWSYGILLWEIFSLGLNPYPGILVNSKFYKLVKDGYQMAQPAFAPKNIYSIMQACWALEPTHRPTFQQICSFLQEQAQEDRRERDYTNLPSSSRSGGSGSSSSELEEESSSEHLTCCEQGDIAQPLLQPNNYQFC
Sequence of High affinity nerve growth factor receptor (Homo sapiens) (P04629 33-796 limits assumed): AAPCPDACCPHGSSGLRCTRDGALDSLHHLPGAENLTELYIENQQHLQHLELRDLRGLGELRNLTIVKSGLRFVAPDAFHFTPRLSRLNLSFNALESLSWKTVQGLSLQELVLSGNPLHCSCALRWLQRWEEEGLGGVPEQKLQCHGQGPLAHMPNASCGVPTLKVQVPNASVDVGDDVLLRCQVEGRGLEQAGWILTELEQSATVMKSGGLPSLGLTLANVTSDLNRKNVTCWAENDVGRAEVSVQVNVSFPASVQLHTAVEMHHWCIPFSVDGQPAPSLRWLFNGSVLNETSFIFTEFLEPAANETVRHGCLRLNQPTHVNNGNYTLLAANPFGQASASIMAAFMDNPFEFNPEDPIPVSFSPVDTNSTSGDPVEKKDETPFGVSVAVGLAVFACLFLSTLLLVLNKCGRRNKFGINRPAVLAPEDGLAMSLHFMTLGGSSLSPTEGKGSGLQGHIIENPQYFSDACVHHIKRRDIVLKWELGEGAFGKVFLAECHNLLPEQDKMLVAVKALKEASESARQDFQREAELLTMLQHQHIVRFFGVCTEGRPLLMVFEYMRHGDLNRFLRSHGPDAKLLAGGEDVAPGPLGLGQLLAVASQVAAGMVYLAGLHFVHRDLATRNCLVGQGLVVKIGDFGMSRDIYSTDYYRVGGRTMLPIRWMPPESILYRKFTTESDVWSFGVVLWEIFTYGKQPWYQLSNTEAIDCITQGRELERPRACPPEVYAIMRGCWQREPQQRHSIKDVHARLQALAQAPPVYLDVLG

Regarding `COc1cc2c(Oc3ccc(-c4nc5ccccc5s4)cc3)ncnc2cc1OCCCN1CCN(C)CC1`, the residual activity in assay [1] was determined as 87%; in assay [2] it was 96%; in assay [3], 106%; in assay [4], 44%; in assay [5], 127%; in assay [6] it was 91%. The residual activity in assay [7] is 81%; in assay [8] it was 76%.
With `COc1cc2c(Oc3ccc(-c4nc5ccccc5s4)cc3)ncnc2cc1OCCCN1CCCC1`, the residual activity was determined as 88% in assay [1]; 98% in assay [2]; 104% in assay [3]; 46% in assay [4]; 131% in assay [5]; 110% in assay [6]. Besides, the residual activity came to 55% in assay [7] and 91% in assay [8].
Regarding `COc1cc2c(Oc3ccc(-c4nc5ccccc5s4)cc3F)ncnc2cc1OCCCN1CCN(C)CC1`, the residual activity in assay [1] was found to be 91%; in assay [2], 100%; in assay [3] it was 121%; in assay [4] it was 41%; in assay [5], 55%; in assay [6], 94%. Also, the residual activity turned out to be 34% in assay [7] and 77% in assay [8].
